Source: patent US20230265116A1, “DEGRADATION OF (EGFR) BY CONJUGATION OF EGFR INHIBITORS WITH E3 LIGASE LIGAND AND METHODS OF USE” (BEIGENE, LTD., priority 2020, published 2023)

Key:
[1] = tested on: EGFR Del19/T790M/C797S (BaF3-DTC cells); assay: EGFR degradation HTRF assay, BaF3-DTC cells; format: cell-based; conditions: 16h treatment; for DTC Dmax (%): maximum percentage of degradation; for DC50: read-out: DTC DC50
Summary of the method: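 EGFR remaining after a 16 h, 37 °C exposure (8 doses, 5-fold steps from 10 uM final, 0.2% DMSO) was quantified by HTRF antibodies in cell lysate. Percent inhibition relative to DMSO control was fitted by four-parameter logistic to give DC50; Dmax denotes maximal degradation.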

[2] = biological target: T1, EGFR L858R/T790M/C797S (BaF3-LTC cells) (Homo sapiens, UniProt P00533, C797S/L858R/T790M); assay: EGFR degradation HTRF assay, BaF3-LTC cells; format: cell-based; conditions: BaF3-LTC, 16h treatment; for Dmax: maximum percentage of degradation, read-out: LTC Dmax (%); for DC50: read-out: LTC DC50
T1 construct: expressed in transfected cells; host or cells: BaF3
T1 sequence (P00533 25-1210 T790M/C797S/L858R): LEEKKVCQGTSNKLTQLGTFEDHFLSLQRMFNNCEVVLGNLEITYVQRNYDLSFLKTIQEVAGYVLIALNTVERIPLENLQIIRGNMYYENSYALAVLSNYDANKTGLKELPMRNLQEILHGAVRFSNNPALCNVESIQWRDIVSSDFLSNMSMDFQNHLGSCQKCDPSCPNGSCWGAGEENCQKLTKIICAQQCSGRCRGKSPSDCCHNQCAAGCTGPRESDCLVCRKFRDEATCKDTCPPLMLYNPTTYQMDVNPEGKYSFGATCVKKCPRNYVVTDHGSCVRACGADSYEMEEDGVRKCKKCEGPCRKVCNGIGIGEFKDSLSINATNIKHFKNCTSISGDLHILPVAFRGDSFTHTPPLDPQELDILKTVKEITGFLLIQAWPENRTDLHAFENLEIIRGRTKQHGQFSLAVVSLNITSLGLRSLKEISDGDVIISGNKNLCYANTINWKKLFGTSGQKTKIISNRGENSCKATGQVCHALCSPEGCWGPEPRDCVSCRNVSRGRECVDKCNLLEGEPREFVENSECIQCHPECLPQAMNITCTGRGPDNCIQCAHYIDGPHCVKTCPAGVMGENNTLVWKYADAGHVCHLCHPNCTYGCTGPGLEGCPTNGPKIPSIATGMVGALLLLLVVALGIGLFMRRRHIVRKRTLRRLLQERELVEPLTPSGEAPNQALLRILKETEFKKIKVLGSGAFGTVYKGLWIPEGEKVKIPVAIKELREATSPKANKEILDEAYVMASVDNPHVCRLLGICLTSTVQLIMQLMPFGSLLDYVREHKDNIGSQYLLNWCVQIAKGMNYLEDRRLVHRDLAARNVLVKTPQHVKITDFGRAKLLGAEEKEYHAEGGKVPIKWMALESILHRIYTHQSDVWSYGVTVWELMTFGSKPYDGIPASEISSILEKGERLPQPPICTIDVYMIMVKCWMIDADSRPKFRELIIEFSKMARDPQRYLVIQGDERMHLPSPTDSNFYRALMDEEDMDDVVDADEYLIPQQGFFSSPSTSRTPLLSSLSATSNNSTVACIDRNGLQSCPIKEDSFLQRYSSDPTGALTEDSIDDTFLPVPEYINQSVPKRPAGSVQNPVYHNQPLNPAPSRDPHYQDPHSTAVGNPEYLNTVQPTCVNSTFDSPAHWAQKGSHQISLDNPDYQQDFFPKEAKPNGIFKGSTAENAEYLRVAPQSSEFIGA
Summary of the method: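 Cells treated 16 h at 37 °C, 5% CO2 in medium with 0.2% DMSO; top final concentration 10 uM, 5-fold dilution, 8 doses. Lysates read by HTRF (665/620 nm); degradation % versus DMSO high control, DC50 from four-parameter fit, Dmax as maximal degradation.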

Structure (SMILES) | DTC Dmax (%) [1] | DC50 [1] | Dmax [2] | DC50 [2]
CCc1cc(Nc2ncc(Br)c(Nc3ccc4nc(C)c(C)cc4c3P(C)(C)=O)n2)c(OC)cc1N1CCC(N2CCN(CCc3cc(F)c(C4CCC(=O)NC4=O)c(F)c3)CC2)CC1 (stereo not drawn) [Example 707, 3-(4-(2-(4-(1-(4-((5-bromo-4-((5-(dimethylphosphoryl)-2,3-dimethylquinolin-6-yl)amino)pyrimidin-2-yl)amino)-2-ethyl-5-methoxyphenyl)piperidin-4-yl)piperazin-1-yl)ethyl)-2,6-difluorophenyl)piperidine-2,6-dione] | 82.86% | 3.29 nM | 92.1% | 5.79 nM
CCc1cc(Nc2ncc(Br)c(Nc3ccc4nc(C)ccc4c3P(C)(C)=O)n2)c(OC)cc1N1CCC(N2CCN(C(=O)C3CN(CCc4cc(F)c(C5CCC(=O)NC5=O)c(F)c4)C3)CC2)CC1 (stereo not drawn) [Example 708, 3-(4-(2-(3-(4-(1-(4-((5-bromo-4-((5-(dimethylphosphoryl)-2-methylquinolin-6-yl)amino)pyrimidin-2-yl)amino)-2-ethyl-5-methoxyphenyl)piperidin-4-yl)piperazine-1-carbonyl)azetidin-1-yl)ethyl)-2,6-difluorophenyl)piperidine-2,6-dione] | 81.62% | 15.2 nM | 91.3% | 22.7 nM
CCc1cc(Nc2ncc(Br)c(Nc3ccc4nc(C)ccc4c3P(C)(C)=O)n2)c(OC)cc1N1CCC(N2CCN(C3CC(c4ccc(NC5CCC(=O)NC5=O)cc4)C3)CC2)CC1 (stereo not drawn) [Example 709, 3-((4-(3-(4-(1-(4-((5-bromo-4-((5-(dimethylphosphoryl)-2-methylquinolin-6-yl)amino)pyrimidin-2-yl)amino)-2-ethyl-5-methoxyphenyl)piperidin-4-yl)piperazin-1-yl)cyclobutyl)phenyl)amino)piperidine-2,6-dione] | 84.65% | 19.8 nM | 87.9% | 21.6 nM
CCc1cc(Nc2ncc(Br)c(Nc3ccc4nc(C)ccc4c3P(C)(C)=O)n2)c(OC)cc1N1CCC(N2CCN(CCc3ccc4c(c3)C3(CC3)C(=O)N4C3CCC(=O)NC3=O)CC2)CC1 (stereo not drawn) [Example 710, 3-(5′-(2-(4-(1-(4-((5-bromo-4-((5-(dimethylphosphoryl)-2-methylquinolin-6-yl)amino)pyrimidin-2-yl)amino)-2-ethyl-5-methoxyphenyl)piperidin-4-yl)piperazin-1-yl)ethyl)-2′-oxospiro[cyclopropane-1,3′-indolin]-1′-yl)piperidine-2,6-dione] | 87.65% | 2.69 nM | 90.9% | 13.6 nM
CCc1cc(Nc2ncc(Br)c(Nc3ccc4nc(C)ccc4c3P(C)(C)=O)n2)c(OC)cc1N1CCC(N2CCN(CCc3ccc4c(c3)C(C)(C)C(=O)N4C3CCC(=O)NC3=O)CC2)CC1 (stereo not drawn) [Example 711, 3-(5-(2-(4-(1-(4-((5-bromo-4-((5-(dimethylphosphoryl)-2-methylquinolin-6-yl)amino)pyrimidin-2-yl)amino)-2-ethyl-5-methoxyphenyl)piperidin-4-yl)piperazin-1-yl)ethyl)-3,3-dimethyl-2-oxoindolin-1-yl)piperidine-2,6-dione] | 91.94% | 0.505 nM | 90.8% | 2.88 nM
CCc1cc(Nc2ncc(Br)c(Nc3ccc4ncn(C)c(=O)c4c3P(C)(C)=O)n2)c(OC)cc1N1CCC(N2CCN(C(=O)C3CN(c4ccc5c(c4)CN(C4CCC(=O)NC4=O)C5=O)C3)CC2)CC1 (stereo not drawn) [Example 712, 3-(5-(3-(4-(1-(4-((5-bromo-4-((5-(dimethylphosphoryl)-3-methyl-4-oxo-3,4-dihydroquinazolin-6-yl)amino)pyrimidin-2-yl)amino)-2-ethyl-5-methoxyphenyl)piperidin-4-yl)piperazine-1-carbonyl)azetidin-1-yl)-1-oxoisoindolin-2-yl)piperidine-2,6-dione] | 91.27% | 2.06 nM | 88.6% | 7.34 nM
CCc1cc(Nc2ncc(Br)c(Nc3ccc4nc(C)ccc4c3P(C)(C)=O)n2)c(OC)cc1N1CCC(N2CCCN(CCc3cc(F)c(C4CCC(=O)NC4=O)c(F)c3)CC2)CC1 (stereo not drawn) [Example 713, 3-(4-(2-(4-(1-(4-((5-bromo-4-((5-(dimethylphosphoryl)-2-methylquinolin-6-yl)amino)pyrimidin-2-yl)amino)-2-ethyl-5-methoxyphenyl)piperidin-4-yl)-1,4-diazepan-1-yl)ethyl)-2,6-difluorophenyl)piperidine-2,6-dione] | 86.33% | 7.43 nM | 90.4% | 50.8 nM
CCc1cc(Nc2ncc(Br)c(Nc3ccc4ncsc4c3P(C)(C)=O)n2)c(OC)cc1N1CCC(N2CCN(CCc3cc(F)c(C4CCC(=O)NC4=O)c(F)c3)CC2)CC1 (stereo not drawn) [Example 714, 3-(4-(2-(4-(1-(4-((5-bromo-4-((7-(dimethylphosphoryl)benzo[d]thiazol-6-yl)amino)pyrimidin-2-yl)amino)-2-ethyl-5-methoxyphenyl)piperidin-4-yl)piperazin-1-yl)ethyl)-2,6-difluorophenyl)piperidine-2,6-dione] | 96.7% | 5.34 nM | 90.1% | 18.9 nM
CCc1cc(Nc2ncc(Br)c(Nc3ccc4nc(C)ccc4c3P(C)(C)=O)n2)c(OC)cc1N1CCC(N2CCN(CCc3cc(F)c(C4CCC(=O)NC4=O)c(F)c3)C[C@@H]2C)CC1 (stereo partly drawn) [Example 715, 3-(4-(2-((S)-4-(1-(4-((5-bromo-4-((5-(dimethylphosphoryl)-2-methylquinolin-6-yl)amino)pyrimidin-2-yl)amino)-2-ethyl-5-methoxyphenyl)piperidin-4-yl)-3-methylpiperazin-1-yl)ethyl)-2,6-difluorophenyl)piperidine-2,6-dione] | 92.57% | 4.3 nM | 89.8% | 7.08 nM
CCc1cc(Nc2ncc(Br)c(Nc3ccc4nc(C)ccc4c3P(C)(C)=O)n2)c(OC)cc1N1CCC(N2C[C@H](C)N(CCc3cc(F)c(C4CCC(=O)NC4=O)c(F)c3)C[C@H]2C)CC1 (stereo partly drawn) [Example 716, 3-(4-(2-((2S,5R)-4-(1-(4-((5-bromo-4-((5-(dimethylphosphoryl)-2-methylquinolin-6-yl)amino)pyrimidin-2-yl)amino)-2-ethyl-5-methoxyphenyl)piperidin-4-yl)-2,5-dimethylpiperazin-1-yl)ethyl)-2,6-difluorophenyl)piperidine-2,6-dione] | 91.65% | 3.06 nM | 90% | 8.2 nM
CCc1cc(Nc2ncc(Br)c(Nc3ccc4nc(C)ccc4c3P(C)(C)=O)n2)c(OC)cc1N1CCC(N2CCN([C@H]3C[C@@H](c4cc(F)c(C5CCC(=O)NC5=O)c(F)c4)C3)CC2)CC1 (stereo partly drawn) [Example 717, 3-(4-((1s,3s)-3-(4-(1-(4-((5-bromo-4-((5-(dimethylphosphoryl)-2-methylquinolin-6-yl)amino)pyrimidin-2-yl)amino)-2-ethyl-5-methoxyphenyl)piperidin-4-yl)piperazin-1-yl)cyclobutyl)-2,6-difluorophenyl)piperidine-2,6-dione] | 94.13% | 5.98 nM | 91.4% | 17.1 nM
CCc1cc(Nc2ncc(Br)c(Nc3ccc4nc(C)ccc4c3P(C)(C)=O)n2)c(OC)cc1N1CCC(N2CCN(CC3CCN(c4cc(F)c(NC5CCC(=O)NC5=O)c(F)c4)CC3)CC2)CC1 (stereo not drawn) [Example 718, 3-((4-(4-((4-(1-(4-((5-bromo-4-((5-(dimethylphosphoryl)-2-methylquinolin-6-yl)amino)pyrimidin-2-yl)amino)-2-ethyl-5-methoxyphenyl)piperidin-4-yl)piperazin-1-yl)methyl)piperidin-1-yl)-2,6-difluorophenyl)amino)piperidine-2,6-dione] | 79.24% | 25.6 nM | 89.6% | 121 nM
CCc1cc(Nc2ncc(Br)c(Nc3ccc4nc(C)ccc4c3P(C)(C)=O)n2)c(OC)cc1N1CCC(N2CCN(CCC3CCN(c4ccc5nn(C6CCC(=O)NC6=O)cc5c4)CC3)CC2)CC1 (stereo not drawn) [Example 719, 3-(5-(4-(2-(4-(1-(4-((5-bromo-4-((5-(dimethylphosphoryl)-2-methylquinolin-6-yl)amino)pyrimidin-2-yl)amino)-2-ethyl-5-methoxyphenyl)piperidin-4-yl)piperazin-1-yl)ethyl)piperidin-1-yl)-2H-indazol-2-yl)piperidine-2,6-dione] | 84.38% | 30.6 nM | 90.4% | 72.9 nM
CCc1cc(Nc2ncc(Br)c(Nc3ccc4c(=O)n(C)ccc4c3P(C)(C)=O)n2)c(OC)cc1N1CCC(N2CCN(CCC3CCN(c4cc(F)c(C5CCC(=O)NC5=O)c(F)c4)CC3)CC2)CC1 (stereo not drawn) [Example 720, 3-(4-(4-(2-(4-(1-(4-((5-bromo-4-((5-(dimethylphosphoryl)-2-methyl-1-oxo-1,2-dihydroisoquinolin-6-yl)amino)pyrimidin-2-yl)amino)-2-ethyl-5-methoxyphenyl)piperidin-4-yl)piperazin-1-yl)ethyl)piperidin-1-yl)-2,6-difluorophenyl)piperidine-2,6-dione] | 86.63% | 10.4 nM | 91.7% | 20.3 nM
CCc1cc(Nc2ncc(Br)c(Nc3ccc4c(=O)n(C)cnc4c3P(C)(C)=O)n2)c(OC)cc1N1CCC(N2CCN(CCC3CCN(c4cc(F)c(C5CCC(=O)NC5=O)c(F)c4)CC3)CC2)CC1 (stereo not drawn) [Example 721, 3-(4-(4-(2-(4-(1-(4-((5-bromo-4-((8-(dimethylphosphoryl)-3-methyl-4-oxo-3,4-dihydroquinazolin-7-yl)amino)pyrimidin-2-yl)amino)-2-ethyl-5-methoxyphenyl)piperidin-4-yl)piperazin-1-yl)ethyl)piperidin-1-yl)-2,6-difluorophenyl)piperidine-2,6-dione] | 88.98% | 7.28 nM | 91.9% | 49.4 nM
